Data published in ChEMBL document CHEMBL1201862, “PubChem BioAssay data set” (2004).
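The compound was tested at five concentrations on cells cultured in 96-well plates, with a 48-hour exposure period. GI50 = concentration required for 50% inhibition of growth.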 Active and inactive are the calls of the source. No stated cut-off is given here; in the data, active = GI50 up to about 1.1 µM and inactive = higher.

Legend:
Assay in all cases: growth of human tumour cells (NCI), 48 h
ACHN = tested on: ACHN
LXFL 529 = tested on: LXFL 529
M14 = tested on: M14
DMS-273 = tested on: DMS-273
Hs-578T = tested on: Hs-578T
DU-145 = tested on: DU-145
T47D = tested on: T47D
RXF 631 = tested on: RXF 631

COC(=O)C1=C(C)N2CCCOC2(C)C(C(=O)OC)C1c1cccc(Cl)c1 (centres undefined)
GI50 (ACHN): 28.2 µM (inactive)
GI50 (LXFL 529): 20 µM (inactive)
GI50 (M14): 20 µM (inactive)

CCCCC#CS(=O)(=O)C(F)(F)F
GI50 (DMS-273): 48 µM (inactive)

CO[C@@]12[C@H](COC(N)=O)C3=C(C(=O)C(C)=C(N)C3=O)N1C[C@@H]1N[C@@H]12 [MITOMYCIN]
GI50 (DMS-273): 0.104 µM (active)
GI50 (Hs-578T): 3.22 µM (inactive)
GI50 (LXFL 529): 2.55 µM (inactive)

COc1ccc2[nH]cc(/C=C(/C)c3ccncc3)c2c1
GI50 (DMS-273): 1.57 µM (inactive)

O=C1/C(=C/c2ccc(Cl)cc2)N=C(c2ccccc2)N1/N=C/c1ccccc1O
GI50 (ACHN): 5.05 µM (inactive)
GI50 (DU-145): 21 µM (inactive)
GI50 (Hs-578T): 36.4 µM (inactive)
GI50 (M14): 2.84 µM (inactive)
GI50 (T47D): 6.27 µM (inactive)

O=S(O)c1cc(Cl)c(O)c(Cl)c1
GI50 (ACHN): > 100 µM (inactive)
GI50 (LXFL 529): > 100 µM (inactive)
GI50 (M14): > 100 µM (inactive)
GI50 (RXF 631): > 100 µM (inactive)

Nc1ccc(OCC(O)N2C(=O)c3ccccc3C2=O)cc1 (centres undefined)
GI50 (ACHN): > 100 µM (inactive)
GI50 (DU-145): > 100 µM (inactive)
GI50 (M14): > 100 µM (inactive)
GI50 (T47D): > 100 µM (inactive)

C#CCCCC(=C)C[C@H](OCc1ccccc1)[C@H]1OC(=O)[C@@H]1C
GI50 (ACHN): 72.6 µM (inactive)
GI50 (M14): 81.3 µM (inactive)

COC1/C=C\C=C(/C)C(=O)NC2=CC(=O)C=C(C2=O)C(OC)C(C)CC(OC)C(OC)C(C)/C=C(/C)C1OC(N)=O (centres undefined)
GI50 (DMS-273): 12 µM (inactive)
